Laboratory results published in ChEMBL document CHEMBL5257145, “1,2,4-Triazine Derivatives as NLRP3 Inhibitors for Treating Diseases” (ACS Med Chem Lett, 2023).

Molecular target: NACHT, LRR and PYD domains-containing protein 3 (Homo sapiens, UniProt Q96P20)
Assay: Inhibition of NLRP3 inflammasome activation in PMA-differentiated human THP-1 cells assessed as reduction in IL-1beta secretion preincubated for 20 hrs followed by nigericin addition and measured after 3 hrs by HTRF assay
Type: cell-based

Sequence of NACHT, LRR and PYD domains-containing protein 3 (Q96P20 whole entry, the tested form may be a part): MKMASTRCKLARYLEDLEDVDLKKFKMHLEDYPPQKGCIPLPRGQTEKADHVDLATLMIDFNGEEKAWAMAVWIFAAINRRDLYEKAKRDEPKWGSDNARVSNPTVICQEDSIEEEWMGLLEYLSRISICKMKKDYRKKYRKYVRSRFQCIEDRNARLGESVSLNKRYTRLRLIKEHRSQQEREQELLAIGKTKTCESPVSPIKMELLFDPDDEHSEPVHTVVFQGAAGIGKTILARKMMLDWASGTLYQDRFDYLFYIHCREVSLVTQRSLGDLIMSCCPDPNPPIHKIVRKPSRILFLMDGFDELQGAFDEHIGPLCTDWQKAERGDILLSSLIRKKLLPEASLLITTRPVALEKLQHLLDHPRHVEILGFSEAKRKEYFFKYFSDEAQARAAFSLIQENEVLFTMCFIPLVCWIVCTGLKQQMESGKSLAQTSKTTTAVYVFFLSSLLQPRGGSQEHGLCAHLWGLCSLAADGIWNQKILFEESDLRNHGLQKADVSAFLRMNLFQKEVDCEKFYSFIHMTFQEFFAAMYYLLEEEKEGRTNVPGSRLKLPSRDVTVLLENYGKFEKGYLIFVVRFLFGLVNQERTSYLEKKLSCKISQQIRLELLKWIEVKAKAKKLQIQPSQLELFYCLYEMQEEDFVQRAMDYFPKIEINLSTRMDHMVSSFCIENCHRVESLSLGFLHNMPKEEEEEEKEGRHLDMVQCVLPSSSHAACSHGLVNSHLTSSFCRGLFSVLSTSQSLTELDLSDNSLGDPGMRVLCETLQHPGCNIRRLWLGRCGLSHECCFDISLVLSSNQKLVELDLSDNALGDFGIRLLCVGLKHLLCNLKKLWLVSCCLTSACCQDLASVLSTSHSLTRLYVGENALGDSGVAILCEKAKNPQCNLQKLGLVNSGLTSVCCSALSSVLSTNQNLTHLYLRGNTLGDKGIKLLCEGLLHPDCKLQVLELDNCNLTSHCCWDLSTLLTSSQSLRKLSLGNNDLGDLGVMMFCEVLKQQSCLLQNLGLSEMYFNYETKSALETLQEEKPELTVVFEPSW

Row | SMILES | IC50 [nM]
1 | Cc1nc(N[C@@H]2CCCN(C)C2)nnc1-c1ccc(Cl)cc1O | < 1
2 | Cc1nc(N[C@@H]2CCCN(C)C2)nnc1-c1ccc(C(F)(F)F)cc1O | < 1
3 | Cc1nc(N[C@@H]2CCCN(C)C2)nnc1-c1ccc(C2CC2)cc1O | < 1

The remaining lines, values ahead:

Row | IC50 [nM] | SMILES
4 | < 1 | Cc1cc(O)c(-c2nnc(N[C@@H]3CCCN(C)C3)nc2C)c(F)c1
5 | < 1 | COc1ccc(-c2nnc(N[C@@H]3CCCN(C)C3)nc2C)c(O)c1
6 | < 1 | COc1cc(O)c(-c2nnc(N[C@@H]3CCCN(C)C3)nc2C)c(F)c1
